This note sets out measurements from patent US20110166223A1, “METHODS OF INHIBITING FGFR3 SIGNALING” (CEDARS-SINAI MEDICAL CENTER, priority 2008, published 2011).

SMILES strings stand for the structures.

The subject of this assay is CCL3 and CCL4 expression in OPM2 cells. Kind of assay: Real-time RT-PCR of FGF2/FGFR3-induced CCL3 and CCL4 expression. To be noted: NF449 one hour before FGF2, FIG. 3b. The format is cell-based. As to the method:
FIG. 3, in accordance with an embodiment herein, depicts 4,4′,4″,4′″-[carbonyl-bis[imino-5,1,3-benzenetriyl bis-{carbonylimino}]]tetrakis-{benzene-1,3-disulfonic acid} inhibits FGF2/FGFR3 signaling in MM cell lines OPM2 and KMS11. (a) KMS11 and OPM2 cells were serum-starved for 12 hours, treated with 4,4′,4″,4′″-[carbonyl-bis[imino-5,1,3-benzenetriyl bis-{carbonylimino}]]tetrakis-{benzene-1,3-disulfonic acid} for one hour before the treatment with FGF2 and the levels of ERK MAP kinase phosphorylation were determined by western blotting with the P-ERK1/2(Thr^202/Tyr^204) antibody. As a loading control, the membranes were reprobed with antibody recognizing ERK regardless of its phosphorylation. Note the FGF2-mediated ERK phosphorylation is inhibited by 4,4′,4″,4′″-[carbonyl-bis[imino-5,1,3-benzenetriyl bis-{carbonylimino}]]tetrakis-{benzene-1,3-disulfonic acid} in both KMS11 and OPM2 cells. (b) The OPM2 cells were serum starved for 12 hours, pre-treated with 4,4′,4″,4′″-[carbonyl-bis[imino-5,1,3-benzenetriyl bis-{carbonylimino}]]tetrakis-{benzene-1,3-disulfonic acid} for one hour before FGF2 treatment, and analyzed for CCL3 and CCL4 expression by real-time RT-PCR as described herein. The results are expressed as the fold difference relative to control (2^ddCt). Note the FGF2-mediated induction of CCL3 and CCL4 that is inhibited by 4,4′,4″,4′″-[carbonyl-bis[imino-5,1,3-benzenetriyl bis-{carbonylimino}]]tetrakis-{benzene-1,3-disulfonic acid}. The data represent two independent samples, each run as a technical duplicate, with the indicated range. The results are representative for three experiments.
Total RNA was isolated using the RNeasy Mini Kit (Qiagene, Valencia, Calif.) and poly-dT-primed cDNA was synthesized from 3 μg of RNA using Omniscript RT kit (Qiagene). Real-time RT-PCRs were carried out as described in detail elsewhere, using Dynamo SYBR Green qPCR chemistry (Finnzymes, Espoo, Finland). The PCR primers were the following (5′ to 3′; product size): CCL3 (SEQ. ID. NO.: 1 and SEQ. ID. NO.: 2), 192 bp; CCL4 (SEQ. ID, NO.: 3 and SEQ. ID. NO.: 4), 214 bp; ACTIN (SEQ. ID. NO.: 5 and SEQ. ID. NO.: 6), 245 bp. The results are expressed as fold difference relative to control (2^ddCt).
Since MM represents another area of pathological FGFR3 signaling in viva, the inventors evaluated whether NF449 inhibits FGFR3 signaling in KMS11 and OPM2 MM cell lines. OPM2 and KMS11 cells overexpress FGFR3 carrying the strongly activating mutations Y373C or K650E and thus serve as an in vitro model for oncogenic FGFR3 signaling in MM [14]. […] As the CCL3 ([…]) and CCL4 (MIP-1β) chemokines were previously identified as transcriptional targets of FGFR3 signaling in MM [16], the inventors determined the effect of NF449 on the FGF2/FGFR3-induced expression of CCL3 and CCL4.

Setting [1] is: listed as 4,4′,4″,4′″-[carbonyl-bis[imino-5,1,3-benzenetriyl bis-{carbonylimino}]]tetrakis.

As to `O=C(Nc1cc(C(=O)Nc2ccc(S(=O)(=O)O)cc2S(=O)(=O)O)cc(C(=O)Nc2ccc(S(=O)(=O)O)cc2S(=O)(=O)O)c1)Nc1cc(C(=O)Nc2ccc(S(=O)(=O)O)cc2S(=O)(=O)O)cc(C(=O)Nc2ccc(S(=O)(=O)O)cc2S(=O)(=O)O)c1` [NF449, 4,4′,4″,4′″-[carbonyl-bis[imino-5,1,3-benzenetriylbis-{carbonylimino}]]tetrakis-{benzene-1,3-disulfonic acid}], the “FGF2-mediated upregulation of CCL3 transcripts” value is recorded as “significantly blocked” and the “FGF2-mediated upregulation of CCL4 transcripts” value is “significantly blocked”. Also, under setting [1], the “FGF2-mediated upregulation of CCL3 transcripts” value was “inhibited” and the “FGF2-mediated upregulation of CCL4 transcripts” value is “inhibited”.
